Assay results as given in patent US12692241B2, “Substituted triazine compound” (Nico Therapeutics, Inc., priority 2021, dated 2026).
Structures can show the parent of a compound that is named as a salt.

These compounds were tested on IL-1β production in THP-1 cells (LPS and ATP; NLRP3 inflammasome activation) (assay: THP-1 IL-1β production inhibitory test). Conditions: Homo sapiens, THP-1, 2 h, PMA-differentiated THP-1 cells, LPS 50 ng/mL and ATP 5 mM, 2 hours, ELISA; read-out: IC50 (nM), IL-1β production.
Assay type: cell-based, human
Protocol: THP-1 IL-1β Production Inhibitory Test
To THP-1 cells, 50 ng/mL PMA (phorbol myristate acetate, SIGMA, P1585) was added at 37° C. and then the cells were cultured for 2 days. […] The cells were cultured at 37° C. for 15 minutes. LPS (lipopolysaccharide, SIMGA, L2880) and ATP (adenosine triphosphate, SIGMA, A2383) were added such that the final concentrations of them became 50 ng/mL and 5 mM, respectively. The cells were cultured at 37° C. for 2 hours. The supernatant was collected and the concentration of IL-1β was measured by ELISA (DuoSet ELISA human IL-1β, R&D Systems, DY201). The concentration of IL-1β was plotted against the logarithm of the concentration of the test compound, and the IC50 value was calculated by sigmoidal Emax model nonlinear regression analysis.

| SMILES | IC50 [nM] |
| --- | --- |
| Cc1nc(N[C@@H]2COC[C@H]2O)nnc1-c1ccc(C(F)(F)F)cc1O [Example 16] | 88 |
| CC(=O)N1CCC[C@@H](Nc2nnc(-c3ccc(C(F)(F)F)cc3O)c(C)n2)C1 [Example 154] | 31 |
| Oc1cc(OC(F)(F)F)ccc1-c1nnc(N[C@@H]2CCOC[C@H]2O)nc1C1CC1 [Example 112] | 18 |
| Cc1nc(N[C@H]2CCC(F)(F)C2)nnc1-c1ccc(C(F)(F)F)cc1O [Example 7] | 28 |
| Cc1nc(N[C@H]2C[C@@](C)(O)C2)nnc1-c1ccc(Cl)cc1O [Example 49] | 14 |
| Cc1nc(N[C@H]2C[C@@](C)(O)C2)nnc1-c1ccc(OC(F)(F)F)cc1O [Example 50] | 31 |
| Cc1nc(NC2CNCCC23CC3)nnc1-c1ccc(C(F)(F)F)cc1O (stereo not drawn) [Example 170] | 390 |
| Cc1nc(N[C@H]2CC[C@H](O)CC2)nnc1-c1ccc(C(F)(F)F)cc1O [Example 26] | 62 |
| Cc1nc(N[C@@H]2CCCN(CCC#N)C2)nnc1-c1ccc(C(F)(F)F)cc1O [Example 181, 3-[(3R)-3-({6-[2-hydroxy-4-(trifluoromethyl)phenyl]-5-methyl-1,2,4-triazin-3-yl}amino)piperidin-1-yl]propanenitrile] | 12 |
| Cc1ccc(-c2nnc(N[C@@H]3CCCC[C@@]3(C)O)nc2C)c(O)c1 [Example 55] | 11 |
| Cc1nc(NC[C@@H]2CCCN2)nnc1-c1ccc(C(F)(F)F)cc1O [Example 134] | 38 |
| Cc1nc(N[C@H]2CN(C)CCC2(F)F)nnc1-c1ccc(C(F)(F)F)cc1O [Example 180] | 180 |
| Cc1nc(N[C@@H]2CCCC[C@H]2N)nnc1-c1ccc(OC(F)(F)F)cc1O [Example 145] | 39 |
| Cc1nc(N[C@@H]2CNC2=O)nnc1-c1ccc(C(F)(F)F)cc1O [Example 65] | 110 |
| Cc1nc(N[C@@H]2CCCCNC2=O)nnc1-c1ccc(C(F)(F)F)cc1O [Example 46] | 30 |
| C[C@]1(O)C[C@@H](Nc2nnc(-c3ccc(OC(F)(F)F)cc3O)c(C3CC3)n2)C1 [Example 120] | 83 |
| Cc1nc(N[C@H]2C[C@@H](CO)C2)nnc1-c1ccc(C(F)(F)F)cc1O [Example 100] | 6.4 |
| Cc1nc(N[C@@H]2CCCC[C@@]2(C)O)nnc1-c1ccc(C(F)(F)F)cc1O [Example 47] | 8.8 |
| COc1ccc(-c2nnc(N[C@@H]3CCOC[C@H]3O)nc2C)c(O)c1 [Example 61] | 36 |
| Cc1nc(N[C@H]2C[C@](C)(O)C2)nnc1-c1ccc(C(F)(F)F)cc1O [Example 13] | 260 |
| Cc1nc(N[C@@H]2CC[C@@H](C#N)C2)nnc1-c1ccc(C(F)(F)F)cc1O [Example 103] | 30 |
| C[C@@]1(O)CCCC[C@H]1Nc1nnc(-c2ccc(C(F)(F)F)cc2O)c(C2CC2)n1 [Example 122] | 15 |
| Cc1nc(N[C@@H]2CN(C)C[C@H]2O)nnc1-c1ccc(C(F)(F)F)cc1O [Example 162] | 350 |
| Cc1nc(NC2CC3(CC(O)C3)C2)nnc1-c1ccc(C(F)(F)F)cc1O (stereo not drawn) [Example 22] | 13 |
| Oc1cc(C(F)(F)F)ccc1-c1nnc(N[C@@H]2CCCC[C@H]2O)nc1-c1ccccc1 [Example 98] | 280 |
| Cc1n[nH]cc1Nc1nnc(-c2ccc(C(F)(F)F)cc2O)c(C)n1 [Example 140] | 160 |
| Cc1nc(N[C@H]2CNC2=O)nnc1-c1ccc(C(F)(F)F)cc1O [Example 62] | 28 |
| Cc1nc(N[C@@H]2CCNC2=O)nnc1-c1ccc(C(F)(F)F)cc1O [Example 43] | 19 |
| CC(=O)N[C@H]1C[C@@H](CNc2nnc(-c3ccc(C(F)(F)F)cc3O)c(C)n2)C1 [Example 157] | 5.7 |

The next lines start with the values.

| IC50 [nM] | SMILES |
| --- | --- |
| 1500 | Cc1nc(N[C@H]2CCCNC2)nnc1-c1ccc(C(F)(F)F)cc1O [Example 137] |
| 690 | Cc1nc(NCCC2(CN)CCC2)nnc1-c1ccc(C(F)(F)F)cc1O [Example 139] |
| 450 | Cc1nc(NC[C@@H]2CCCNC2)nnc1-c1ccc(C(F)(F)F)cc1O [Example 135] |
| 370 | CC(=O)N1CCO[C@@H](CNc2nnc(-c3ccc(C(F)(F)F)cc3O)c(C)n2)C1 [Example 155] |
| 130 | Cc1nc(Nc2cnn(C)c2)nnc1-c1ccc(C(F)(F)F)cc1O [Example 93] |
| 130 | Cc1nc(NCCC#N)nnc1-c1ccc(C(F)(F)F)cc1O [Example 101] |
| 91 | CC(=O)NCCC1(CNc2nnc(-c3ccc(C(F)(F)F)cc3O)c(C)n2)CCC1 [Example 104] |
| 84 | Cc1nc(NC2(CO)COC2)nnc1-c1ccc(C(F)(F)F)cc1O [Example 29] |
| 81 | Cc1nc(NCC2CCCCO2)nnc1-c1ccc(C(F)(F)F)cc1O (stereo not drawn) [Example 96] |
| 70 | Cc1nc(N[C@@H]2CCN(CCO)C2)nnc1-c1ccc(C(F)(F)F)cc1O [Example 161, 2-(3-{[(3R)-1-(2-hydroxyethyl)pyrrolidin-3-yl]amino}-5-methyl-1,2,4-triazin-6-yl)-5-(trifluoromethyl)phenol] |
| 62 | Cc1nc(N[C@H]2CC[C@]2(C)O)nnc1-c1ccc(C(F)(F)F)cc1O [Example 64] |
| 61 | Cc1nc(NC[C@H](C)CCN)nnc1-c1ccc(C(F)(F)F)cc1O [Example 136] |
| 59 | Cc1nc(NCC(C)(C)CO)nnc1-c1ccc(C(F)(F)F)cc1O [Example 9] |
| 54 | C[C@@]1(O)CCCC[C@H]1Nc1nnc(-c2ccc(Cl)cc2O)c(C2CC2)n1 [Example 123] |
| 53 | Cc1nc(Nc2ccn(CCO)n2)nnc1-c1ccc(C(F)(F)F)cc1O [Example 90] |
| 52 | Cc1nc(NCC2CC2)nnc1-c1ccc(C(F)(F)F)cc1O [Example 91] |
| 43 | Cc1nc(N[C@@H]2CCC[C@H](O)C2)nnc1-c1cc(F)c(C(F)(F)F)cc1O [Example 176] |
| 38 | COc1ccc(-c2nnc(N[C@H]3C[C@@](C)(O)C3)nc2C)c(O)c1 [Example 60] |
| 36 | CC(=O)NC[C@H]1C[C@@H](Nc2nnc(-c3ccc(C(F)(F)F)cc3O)c(C)n2)C1 [Example 105] |
| 35 | Cc1nc(NC[C@@H](C)O)nnc1-c1ccc(C(F)(F)F)cc1O [Example 4] |
| 30 | Cc1nc(N[C@@H]2CCC[C@H](O)C2)nnc1-c1ccc(Cl)cc1O [Example 82] |

| IC50 [nM] | SMILES |
| --- | --- |
| 30 | Cc1nc(N[C@@H]2CCC(F)(F)C[C@H]2O)nnc1-c1ccc(C(F)(F)F)cc1O [Example 69] |
| 27 | Cc1nc(N[C@@H]2CCOC[C@H]2O)nnc1-c1ccc(C2CC2)cc1O [Example 78] |
| 26 | Cc1nc(NC2CCCCC2)nnc1-c1ccc(C(F)(F)F)cc1O [Example 6] |
| 26 | COc1ccc(-c2nnc(N[C@@H]3CCC[C@H](O)C3)nc2C)c(O)c1 [Example 168] |
| 23 | Cc1nc(Nc2cn[nH]c2)nnc1-c1ccc(C(F)(F)F)cc1O [Example 149, 2-{5-methyl-3-[(1H-pyrazol-4-yl)amino]-1,2,4-triazin-6-yl}-5-(trifluoromethyl)phenol] |
| 23 | Cc1nc(N[C@@H]2CCC[C@@H](O)C2)nnc1-c1ccc(C(F)(F)F)cc1O [Example 166] |
| 23 | Cc1nc(NC2(CO)CCC2)nnc1-c1ccc(C(F)(F)F)cc1O [Example 23] |
| 19 | Cc1nc(N[C@@H]2CCCN(C3COC3)C2)nnc1-c1ccc(C(F)(F)F)cc1O [Example 179] |
| 16 | Cc1nc(N[C@@H]2CCCCC[C@H]2O)nnc1-c1ccc(C(F)(F)F)cc1O [Example 76] |
| 12 | Oc1cc(C(F)(F)F)ccc1-c1nnc(N[C@@H]2CCOC[C@H]2O)nc1C1CC1 [Example 111] |
| 11 | Cc1nc(N[C@@H]2CC[C@H](C#N)C2)nnc1-c1ccc(C(F)(F)F)cc1O [Example 102] |
| 10 | Cc1nc(N[C@@H]2CCOC[C@H]2O)nnc1-c1ccc(OC(F)(F)F)cc1O [Example 32] |
| 10 | O=C1NCC[C@@H]1Nc1nnc(-c2ccc(C(F)(F)F)cc2O)c(C2CC2)n1 [Example 127] |
| 10 | Cc1nc(N[C@H]2CCNC2=O)nnc1-c1ccc(Cl)cc1O [Example 70] |
| 8.5 | Oc1cc(Cl)ccc1-c1nnc(N[C@@H]2CCCC[C@H]2O)nc1C1CC1 [Example 115] |
| 8.3 | Cc1nc(N[C@H]2CCNC2=O)nnc1-c1ccc(OC(F)(F)F)cc1O [Example 72] |
| 7.4 | Cc1nc(N[C@@H]2CCCC[C@H]2O)nnc1-c1ccc(Cl)cc1O [Example 19] |
| 6.9 | Cc1nc(NC2CC(C)(O)C2)nnc1-c1ccc(C(F)(F)F)cc1O (stereo not drawn) [Example 8] |
| 5.6 | Cc1nc(N[C@@H]2CCCNC2)nnc1-c1ccc(C(F)(F)F)cc1O [Example 138] |
| 4.2 | Cc1nc(N[C@@H]2CCCN(CC3CC3)C2)nnc1-c1ccc(C(F)(F)F)cc1O [Example 178] |

Same assay, conditions: Homo sapiens, THP-1, 2 h, read-out: IC50 (nM), IL-1β production

| SMILES | IC50 [nM] |
| --- | --- |
| Cc1nc(N[C@@H]2CCCC[C@H]2O)nnc1-c1ccc(OC(F)F)cc1O [Example 186, 5-(difluoromethoxy)-2-(3-{[(1R,2R)-2-hydroxycyclohexyl]amino}-5-methyl-1,2,4-triazin-6-yl)phenol monohydrochloride] | 11 |

Same assay, conditions: PMA-differentiated THP-1 cells, LPS 50 ng/mL and ATP 5 mM, 2 hours, ELISA; dihydrochloride; read-out: IC50 (nM), IL-1β production

| SMILES | IC50 [nM] |
| --- | --- |
| Cc1nc(N[C@@H]2CCCC[C@H]2N)nnc1-c1ccc(C(F)(F)F)cc1O [Example 188, 2-(3-{[(1R,2R)-2-aminocyclohexyl]amino}-5-methyl-1,2,4-triazin-6-yl)-5-(trifluoromethyl)phenol dihydrochloride] | 21 |
